Laboratory results as given in patent publication US12623942B2, “Method for extracting salts and temperature- regenerated extracting composition” (ADIONICS, priority 2016, dated 2026).

Legend:
[1] = Complexing constant Log K in methanol at 25° C.; format: binding
Protocol: K is the complexing constant of a CEM and a […] cation in methanol, at 25° C., which is measured according to the standard method of isothermal calorimetric titration.

[2] = Extraction isotherms of CaCl2 at room temperature and 80° C.; settings: 0.1M CEM2 + 1M ASM9 in 12ClPh, Org./Water = 1
Protocol: Concerning the extraction or back extraction assays at a higher temperature, in particular at 60° C. or at 80° C., a magnetic stirring (at 500 revolutions per minute), for 2 hours, is carried out with an indirect thermostatically-controlled heating in a metal mold on a hotplate.
This series of examples aims to establish two extraction isotherms of CaCl2 at 20° C. and at 80° C. for an extracting composition including 0.1 Mol/L of CEM2, combined with 1 Mol/L of ASM9; the whole dissolved in 1,2-dichlorobenzene.
After carrying out the 7 specific extractions (duplicated) of salts, the amounts of extracted cations in relative molar percentage before and after extraction at room temperature and at water/extracting formulation iso-volume are indicated in table IV: […]
The same series of extractions was then carried out at 80° C. to give table V as follows: […]

[3] = Regeneration (back-extraction) of the extracting composition charged with CaCl2
Protocol: Two samples of the extracting composition of example 4 with the highest content of CaCl2 at 20° C. were contacted with a saline water at 1 Mol/L of CaCl2 at room temperature to increase the salt charging level of the dissolved CEM2 cation extracting molecules, and thus to get close to their salt saturation level (0.1 Mol/L). Then, these two samples were contacted with an iso-volume of distilled water at 20° C. and stirred. One of the two diphasic samples was then heated up to 80° C. and kept under stirring. The initial salt charging level being assessed at 80 mMol/L, it appears that the latter drops to 15.27 mMol/L from the first regeneration step at 80° C. whereas, during regeneration at 20° C., the salt residual concentration is 29.3 mMol/L. FIG. 4 illustrates the results obtained throughout several serial steps of contacting the hydrophobic organic liquid phase charged with salts with an iso-volume of distilled water. […] In use, this advantage seems to be even more significant when a resin with a high CEM content, and thus a high salt content, is implemented.

[4] = Selective extraction from a mixture of NaCl, CaCl2, SrCl2 and BaCl2; settings: 0.1 Mol/L CEM2 in ASM2/ASM1 60/40 by volume, RT
Protocol: A brine containing a mixture of NaCl, CaCl2, SrCl2 and BaCl2 is made as described above. The dissolved salt concentrations are indicated in table VIII in mMol/L. The extraction was carried out a second time with changed divalent salt concentrations.
The extracting composition consists of 0.1 Mol/L of CEM2 and of a mixture of two ASMs. This mixture is composed of ASM2 which is usually referred to as [3,5-Bis(Trifluoromethyl)benzyl Alcohol] (35TFMBnOH) of CAS #: 32707-89-4, up to 60% by volume, and of ASM1, referred to as [3-(Trifluoromethyl)benzyl Alcohol](3TFMBnOH), of molecular formula C8H7F3O of MW=176.14 g/Mol and of CAS #: 349-75-7, up to 40% by volume, both serving as a fluidizing agent and as an ASM given its liquid form.
The extraction is carried out as described in example 1 and at room temperature.

Log K(Cs^+, MeOH, 25° C.) [1]: 2.8
Log K(K^+, MeOH, 25° C.) [1]: 3.3
Log K(Li^+, MeOH, 25° C.) [1]: 2.6
Log K(Na^+, MeOH, 25° C.) [1]: 2.8
Log K(Rb^+, MeOH, 25° C.) [1]: 2.6
SMILES: CCN(CC)C(=O)COc1c2cc(C(C)(C)C)cc1Cc1cc(C(C)(C)C)cc(c1OCC(=O)N(CC)CC)Cc1cc(C(C)(C)C)cc(c1OCC(=O)N(CC)CC)Cc1cc(C(C)(C)C)cc(c1OCC(=O)N(CC)CC)Cc1cc(C(C)(C)C)cc(c1OCC(=O)N(CC)CC)Cc1cc(C(C)(C)C)cc(c1OCC(=O)N(CC)CC)C2 [CEM2, 4-tert-butyl-Calix[6]arene hexakis(N,N-diethylacetamide)]
Extraction rate at 80° C., CaCl2 ([2]; 0.01M): 11%
Extraction rate at 80° C., CaCl2 ([2]; 0.02M): 16%
Extraction rate at 80° C., CaCl2 ([2]; 0.03M): 18%
Extraction rate at 80° C., CaCl2 ([2]; 0.04M): 17%
Extraction rate at 80° C., CaCl2 ([2]; 0.1M): 18%
Extraction rate at 80° C., CaCl2 ([2]; 0.2M): 16%
Extraction rate at 80° C., CaCl2 ([2]; 0.4M): 10%
Extraction rate at room temperature (RT), CaCl2 ([2]; 0.01M): 39%
Extraction rate at room temperature (RT), CaCl2 ([2]; 0.02M): 42%
Extraction rate at room temperature (RT), CaCl2 ([2]; 0.03M): 41%
Extraction rate at room temperature (RT), CaCl2 ([2]; 0.04M): 40%
Extraction rate at room temperature (RT), CaCl2 ([2]; 0.1M): 34%
Extraction rate at room temperature (RT), CaCl2 ([2]; 0.2M): 27%
Extraction rate at room temperature (RT), CaCl2 ([2]; 0.4M): 16%
Salt residual concentration after regeneration ([3]; 0.1 Mol/L CEM2 + 1 Mol/L ASM9 in 1,2-dichlorobenzene, initial charge 80 mMol/L CaCl2, iso-volume distilled water, 20° C.): 29.3 mmol/L
Salt charging level after the first regeneration step ([3]; 0.1 Mol/L CEM2 + 1 Mol/L ASM9 in 1,2-dichlorobenzene, initial charge 80 mMol/L CaCl2, iso-volume distilled water, 80° C.): 15.27 mmol/L
Reduction in the number of necessary regeneration steps, hot regeneration ([3]; 80° C. versus 20° C., same CaCl2 overall back-extraction rate): 2 fold
Final Concentration Sr^2+ ([4]; Table IX, initial 9.17): 0 mmol/L
% extraction Sr^2+ ([4]; Table IX, initial 9.17 mMol/L): 100%
Final Concentration Ca^2+ ([4]; Table IX, initial 9.25): 0 mmol/L
% extraction Ca^2+ ([4]; Table IX, initial 9.25 mMol/L): 100%
Final Concentration Ba^2+ ([4]; Table IX, initial 9.32): 0 mmol/L
% extraction Ba^2+ ([4]; Table IX, initial 9.32 mMol/L): 100%
Final Concentration Na^+ ([4]; Table IX, initial 196.04): 195.9835 mmol/L
% extraction Na^+ ([4]; Table IX, initial 196.04 mMol/L): 0%
ANIONS Cl− Final Concentration ([4]; Table IX, initial 245.4): 203.16 mmol/L
Final Concentration Sr^2+ ([4]; Table VIII, initial 4.29): 0 mmol/L
% extraction Sr^2+ ([4]; Table VIII, initial 4.29 mMol/L): 100%
Final Concentration Ba^2+ ([4]; Table VIII, initial 4.69): 0 mmol/L
% extraction Ba^2+ ([4]; Table VIII, initial 4.69 mMol/L): 100%
Final Concentration Ca^2+ ([4]; Table VIII, initial 29.13): 0.4916 mmol/L
% extraction Ca^2+ ([4]; Table VIII, initial 29.13 mMol/L): 98%
Final Concentration Na^+ ([4]; Table VIII, initial 193.52): 199.4775 mmol/L
% extraction Na^+ ([4]; Table VIII, initial 193.52 mMol/L): 0%
ANIONS Cl− Final Concentration ([4]; Table VIII, initial 257.74): 213.38 mmol/L
